The star is where a group is joined. Palmitoyl = CCCCCCCCCCCCCCCC(=O)*
Experiment: Compound gel-forming ability in water (visual inspection, tube tapping assay, tilted tube assay);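 also: peptides mixed with de-ionized water at about 22-25 °C, judged after 20 min by eye plus tube tapping (10 taps, moves counted) and 90° tilt mobility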
Format: physicochemical
Settings: for gel formation in aqueous solution, 6% / gel formation in aqueous solution, 11% / gel formation in aqueous solution, 20% / gel formation in aqueous solution, 3%: Table 3; for gel formation in aqueous solution, 6% / propensity to form gels, chimeric or mutated polypeptides, 6%: 6% w/w; for propensity to form gels, chimeric or mutated polypeptides, 6% / propensity to form gels, chimeric or mutated polypeptides, 11% / propensity to form gels, chimeric or mutated polypeptides, 20% / propensity to form gels, chimeric or mutated polypeptides, 3%: Table 5; for gel formation in aqueous solution, 11% / propensity to form gels, chimeric or mutated polypeptides, 11%: 11% w/w; for gel formation in aqueous solution, 20% / propensity to form gels, chimeric or mutated polypeptides, 20%: 20% w/w; for gel formation at 6% w/w: 6% w/w in water; for gel formation at 11% w/w: 11% w/w in water; for propensity to form gels, chimeric or mutated polypeptides, 3% / gel formation in aqueous solution, 3%: 3% w/w; for gel formation at 20% w/w: 20% w/w in water; for Physical property at 11% w/w: Table 2, 11% w/w in aqueous solution, room temperature; for gel formation at 3% w/w: 3% w/w in water
Procedure: Determination of Compound Gel-forming Ability in Water: To determine the solubility of polypeptides at room temperature, 1, 2, 3, 4, 5, 20, or 100 mg of a selected peptide is weighed and deposited into a clear plastic or glass vial and an aliquot of de-ionized water was then added to the vial. The procedure takes place in a room which is maintained at approximately 22-25° C. […] Insoluble peptides sample retained the particles or paste-like characteristics after 20 min of reaction. In addition to visual inspection, we performed a tube tapping assay and a tilted tube assay to differentiate the gelling status of peptide solutions.
To determine the solubility of polypeptides at room temperature, 1, 2, 3, 4, 5, 20, or 100 mg of a selected peptide is weighed and deposited into a clear plastic vial and an aliquot of de-ionized water was then added to the vial. The procedure takes place in a room which is maintained at approximately 22-25° C. Polypeptide sample which is considered soluble dissolves instantly in water and stays as a clear solution without obvious macroscopic change in viscosity at 20 min after mixing with water. […] If macroscopic particles of peptides remain in the solution at 20 min after mixing with water, the peptide is considered insoluble or precipitated at the given concentration. In this case, the quality of peptides is further judged by two other criteria: (1) mobility following a tapping of the tube (tube tapping assay) and (2) mobility flowing tilting the tube by 900 (tilted tube assay). In the first assay, the tube is tapped with the finger for 10 times, and the number of times that the body of the solution changes position is recorded. An aqueous solution such as water will have a score of 9 or 10 in this assay; meaning that the body of the liquid moves every time when one taps the tube. […] Those with moderate viscosity form liquid gel that changes the conformation slowly when the container tube is tapped with a finger or tilted. […] If macroscopic change in the position of the body of gel was observed 5-9 time out of 10 separate tapping tests, the gel is considered a liquid gel. The high viscosity of a liquid gel is further confirmed using the tilted tube assay. […] If the liquid or gel body takes more than 15 seconds to flow to the bottom of the tilted tube, the resulting aqueous mass is considered a liquid gel.
To allow systematic analysis of the gel-forming ability, the assay was first conducted at a peptide concentration of 11% w/w in aqueous solution. The peptides analyzed included functional regulators of cell surface receptors, enzymes, complement factors, antimicrobial peptides, immunomodulators, therapeutic peptides, cell-penetrating peptide, antigens, matrikines, and analogs of CGRP, adrenomedullin and adenomedullin 2 (or intermedin).

Substance: Pal-HSYGTFTSDVSSYLEGQAAKEFIAWLVKGR-NH2 (Palmitoyl-HSYGTFTSDVSSYLEGQAAKEFIAWLVKGR-NH2; SMILES CCCCCCCCCCCCCCCC(=O)N[C@@H](Cc1c[nH]cn1)C(=O)N[C@@H](CO)C(=O)N[C@@H](Cc1ccc(O)cc1)C(=O)NCC(=O)N[C@H](C(=O)N[C@@H](Cc1ccccc1)C(=O)N[C@H](C(=O)N[C@@H](CO)C(=O)N[C@@H](CC(=O)O)C(=O)N[C@H](C(=O)N[C@@H](CO)C(=O)N[C@@H](CO)C(=O)N[C@@H](Cc1ccc(O)cc1)C(=O)N[C@@H](CC(C)C)C(=O)N[C@@H](CCC(=O)O)C(=O)NCC(=O)N[C@@H](CCC(N)=O)C(=O)N[C@@H](C)C(=O)N[C@@H](C)C(=O)N[C@@H](CCCCN)C(=O)N[C@@H](CCC(=O)O)C(=O)N[C@@H](Cc1ccccc1)C(=O)N[C@H](C(=O)N[C@@H](C)C(=O)N[C@@H](Cc1c[nH]c2ccccc12)C(=O)N[C@@H](CC(C)C)C(=O)N[C@H](C(=O)N[C@@H](CCCCN)C(=O)NCC(=O)N[C@@H](CCCNC(=N)N)C(N)=O)C(C)C)[C@@H](C)CC)C(C)C)[C@@H](C)O)[C@@H](C)O) [SEQ ID NO:221]
- gel formation in aqueous solution, 6%: SS (SS for semisolid gel)
- propensity to form gels, chimeric or mutated polypeptides, 6%: SS (An ability to form semisolid gel is represented by an SS)

Substance: Pal-HSYH-(D-Phe)-RWGKPV-NH2 [SEQ ID NO:273]
- gel formation in aqueous solution, 11%: SS (SS for semisolid gel)
- gel formation in aqueous solution, 20%: SS (SS for semisolid gel)
- propensity to form gels, chimeric or mutated polypeptides, 11%: SS (An ability to form semisolid gel is represented by an SS)
- propensity to form gels, chimeric or mutated polypeptides, 20%: SS (An ability to form semisolid gel is represented by an SS)

Substance: Pal-HSYKRPPGFS-(DβNal)-Ile-NH2 [SEQ ID NO:261]
- gel formation at 6% w/w: liquid gel
- gel formation at 11% w/w: semisolid gel
- gel formation in aqueous solution, 11%: SS (SS for semisolid gel)
- propensity to form gels, chimeric or mutated polypeptides, 3%: AS/IS
- propensity to form gels, chimeric or mutated polypeptides, 11%: SS (An ability to form semisolid gel is represented by an SS)

Substance: Pal-HSYRPKPQQFF-Sar-L-Met-(02)-NH2 [SEQ ID NO:254]
- gel formation in aqueous solution, 20%: SS (SS for semisolid gel)
- propensity to form gels, chimeric or mutated polypeptides, 20%: SS (An ability to form semisolid gel is represented by an SS)

Substance: Pal-HSYSLDVPIGLLQILLEQARARAAREQATTNARILARVGHC-NH2 [SEQ ID NO:265]
- gel formation at 20% w/w: semisolid or liquid gel
- gel formation in aqueous solution, 11%: AS/IS (AS/IS for aqueous solution or insoluble)
- propensity to form gels, chimeric or mutated polypeptides, 11%: AS/IS

Substance: Pal-HSYVMGHFRWDRF-NH2 [SEQ ID NO:260]
- gel formation at 6% w/w: liquid gel

Substance: Pal-KPSSPHSY-NH2 (Palmitoyl-KPSSPHSY-NH2; SMILES CCCCCCCCCCCCCCCC(=O)N[C@@H](CCCCN)C(=O)N1CCC[C@H]1C(=O)N[C@@H](CO)C(=O)N[C@@H](CO)C(=O)N1CCC[C@H]1C(=O)N[C@@H](Cc1c[nH]cn1)C(=O)N[C@@H](CO)C(=O)N[C@@H](Cc1ccc(O)cc1)C(N)=O) [SEQ ID NO:118]
- Physical property at 11% w/w: SS (SS for semisolid gel)

Substance: Pal-KSY-NH2 [SEQ ID NO:121]
- Physical property at 11% w/w: SS (SS for semisolid gel)

Substance: Pal-KVQKLAHQIYQFTD(Aib)DSAPVDPSSPHSY-NH2 [SEQ ID NO:124]
- Physical property at 11% w/w: SS (SS for semisolid gel)

Substance: Pal-KVQKLAHQIYQFTDK(Aib)SAPVDPSSPHSY-NH2 [SEQ ID NO:125]
- Physical property at 11% w/w: AS/IS (AS/IS for aqueous solution or insoluble)

Substance: Pal-KVQKLAHQIYQFTDKD(Aib)APVDPSSPHSY-NH2 [SEQ ID NO:126]
- Physical property at 11% w/w: SS (SS for semisolid gel)

Substance: Pal-KVQKLAHQSAPVDPSSPHSY-NH2 [SEQ ID NO:105]
- Physical property at 11% w/w: AS/IS (AS/IS for aqueous solution or insoluble)

Substance: Pal-KVQKLNFVPTNVGSKAF-NH2 [SEQ ID NO:135]
- Physical property at 11% w/w: AS/IS (AS/IS for aqueous solution or insoluble)

Substance: Pal-KVQKLNFVPTNVGSKAY-NH2 (Palmitoyl-KVQKLNFVPTNVGSKAY-NH2; SMILES CCCCCCCCCCCCCCCC(=O)N[C@@H](CCCCN)C(=O)N[C@H](C(=O)N[C@@H](CCC(N)=O)C(=O)N[C@@H](CCCCN)C(=O)N[C@@H](CC(C)C)C(=O)N[C@@H](CC(N)=O)C(=O)N[C@@H](Cc1ccccc1)C(=O)N[C@H](C(=O)N1CCC[C@H]1C(=O)N[C@H](C(=O)N[C@@H](CC(N)=O)C(=O)N[C@H](C(=O)NCC(=O)N[C@@H](CO)C(=O)N[C@@H](CCCCN)C(=O)N[C@@H](C)C(=O)N[C@@H](Cc1ccc(O)cc1)C(N)=O)C(C)C)[C@@H](C)O)C(C)C)C(C)C) [SEQ ID NO:139]
- Physical property at 11% w/w: SS (SS for semisolid gel)

Substance: Pal-KVQKLSAPVDPSSPHSY-miniPEG-(D-Tyr)QWAV(β-Ala)HF(Nle)-NH2 [SEQ ID NO:209]
- gel formation in aqueous solution, 3%: SS (SS for semisolid gel)
- gel formation in aqueous solution, 6%: SS (SS for semisolid gel)
- gel formation in aqueous solution, 11%: SS (SS for semisolid gel)
- propensity to form gels, chimeric or mutated polypeptides, 3%: SS (An ability to form semisolid gel is represented by an SS)
- propensity to form gels, chimeric or mutated polypeptides, 6%: SS (An ability to form semisolid gel is represented by an SS)
- propensity to form gels, chimeric or mutated polypeptides, 11%: SS (An ability to form semisolid gel is represented by an SS)

Substance: Pal-KVQKLSAPVDPSSPHSY-miniPEG-CSNLSTCVLGKLSQELHKLQTYPRTNTGSGTP-NH2 [SEQ ID NO:217]
- gel formation at 6% w/w: liquid gel
- gel formation at 11% w/w: semisolid gel
- gel formation in aqueous solution, 11%: SS (SS for semisolid gel)
- propensity to form gels, chimeric or mutated polypeptides, 11%: SS (An ability to form semisolid gel is represented by an SS)

Substance: Pal-KVQKLSAPVDPSSPHSY-miniPEG-CYFQNCPRG-NH2 [SEQ ID NO:204]
- gel formation at 6% w/w: semisolid gel
- gel formation at 11% w/w: semisolid gel
- gel formation in aqueous solution, 6%: SS (SS for semisolid gel)
- gel formation in aqueous solution, 11%: SS (SS for semisolid gel)
- propensity to form gels, chimeric or mutated polypeptides, 6%: SS (An ability to form semisolid gel is represented by an SS)
- propensity to form gels, chimeric or mutated polypeptides, 11%: SS (An ability to form semisolid gel is represented by an SS)

Substance: Pal-KVQKLSAPVDPSSPHSY-miniPEG-CYIQNCPLG-NH2 [SEQ ID NO:205]
- gel formation at 6% w/w: liquid gel
- gel formation at 11% w/w: semisolid gel
- gel formation in aqueous solution, 11%: SS (SS for semisolid gel)
- propensity to form gels, chimeric or mutated polypeptides, 11%: SS (An ability to form semisolid gel is represented by an SS)

Substance: Pal-KVQKLSAPVDPSSPHSY-miniPEG-EHWSY-(D-2Nal)-LRPG-NH2 [SEQ ID NO:201]
- gel formation at 3% w/w: semisolid gel
- gel formation at 6% w/w: semisolid gel
- gel formation at 11% w/w: semisolid gel
- gel formation in aqueous solution, 3%: SS (SS for semisolid gel)
- gel formation in aqueous solution, 6%: SS (SS for semisolid gel)
- gel formation in aqueous solution, 11%: SS (SS for semisolid gel)
- propensity to form gels, chimeric or mutated polypeptides, 3%: SS (An ability to form semisolid gel is represented by an SS)
- propensity to form gels, chimeric or mutated polypeptides, 6%: SS (An ability to form semisolid gel is represented by an SS)
- propensity to form gels, chimeric or mutated polypeptides, 11%: SS (An ability to form semisolid gel is represented by an SS)

Substance: Pal-KVQKLSAPVDPSSPHSY-miniPEG-HAEGTFTSDVSSYLEGQAAKEFIAWLVKGR-NH2 [SEQ ID NO:220]
- gel formation in aqueous solution, 11%: SS (SS for semisolid gel)
- propensity to form gels, chimeric or mutated polypeptides, 11%: SS (An ability to form semisolid gel is represented by an SS)

Substance: Pal-KVQKLSAPVDPSSPHSY-miniPEG-RPKPQQFFGLM-NH2 [SEQ ID NO:215]
- gel formation in aqueous solution, 6%: AS/IS (AS/IS for aqueous solution or insoluble)
- gel formation in aqueous solution, 11%: SS (SS for semisolid gel)
- propensity to form gels, chimeric or mutated polypeptides, 6%: AS/IS
- propensity to form gels, chimeric or mutated polypeptides, 11%: SS (An ability to form semisolid gel is represented by an SS)

Substance: Pal-KVQKLSAPVDPSSPHSY-miniPEG-Sar-RVYVHPA-NH2 [SEQ ID NO:216]
- gel formation at 11% w/w: liquid gel
- gel formation at 20% w/w: liquid gel

Substance: Pal-KVQKLSAPVDPSSPHSY-miniPEG-Y-(D-Ala)-GF(D-Leu)-NH2 [SEQ ID NO:212]
- gel formation at 3% w/w: semisolid gels
- gel formation in aqueous solution, 3%: SS (SS for semisolid gel)
- propensity to form gels, chimeric or mutated polypeptides, 3%: SS (An ability to form semisolid gel is represented by an SS)

Substance: Pal-KVQKLSAPVDPSSPHSY-miniPEG-Y-(D-Met)-FHLMD-NH2 [SEQ ID NO:210]
- gel formation at 6% w/w: semisolid or liquid gel
- gel formation at 11% w/w: semisolid gel
- gel formation in aqueous solution, 6%: SS (SS for semisolid gel)
- gel formation in aqueous solution, 11%: SS (SS for semisolid gel)
- propensity to form gels, chimeric or mutated polypeptides, 6%: SS (An ability to form semisolid gel is represented by an SS)
- propensity to form gels, chimeric or mutated polypeptides, 11%: SS (An ability to form semisolid gel is represented by an SS)

Substance: Pal-KVQKLSAPVDPSSPHSY-miniPEG-YNWNSFGLRF-NH2 [SEQ ID NO:208]
- gel formation in aqueous solution, 20%: SS (SS for semisolid gel)
- propensity to form gels, chimeric or mutated polypeptides, 20%: SS (An ability to form semisolid gel is represented by an SS)

Substance: Pal-KVQNLSAPVDPSSPHSY-NH2 [SEQ ID NO:104]
- Physical property at 11% w/w: AS/IS (AS/IS for aqueous solution or insoluble)

Substance: Pal-QKLAHQIYQFTDKDVAPRSKISPQGY-NH2 (Palmitoyl-QKLAHQIYQFTDKDVAPRSKISPQGY-NH2; SMILES CCCCCCCCCCCCCCCC(=O)N[C@@H](CCC(N)=O)C(=O)N[C@@H](CCCCN)C(=O)N[C@@H](CC(C)C)C(=O)N[C@@H](C)C(=O)N[C@@H](Cc1c[nH]cn1)C(=O)N[C@@H](CCC(N)=O)C(=O)N[C@H](C(=O)N[C@@H](Cc1ccc(O)cc1)C(=O)N[C@@H](CCC(N)=O)C(=O)N[C@@H](Cc1ccccc1)C(=O)N[C@H](C(=O)N[C@@H](CC(=O)O)C(=O)N[C@@H](CCCCN)C(=O)N[C@@H](CC(=O)O)C(=O)N[C@H](C(=O)N[C@@H](C)C(=O)N1CCC[C@H]1C(=O)N[C@@H](CCCNC(=N)N)C(=O)N[C@@H](CO)C(=O)N[C@@H](CCCCN)C(=O)N[C@H](C(=O)N[C@@H](CO)C(=O)N1CCC[C@H]1C(=O)N[C@@H](CCC(N)=O)C(=O)NCC(=O)N[C@@H](Cc1ccc(O)cc1)C(N)=O)[C@@H](C)CC)C(C)C)[C@@H](C)O)[C@@H](C)CC) [SEQ ID NO:103]
- Physical property at 11% w/w: AS/IS (AS/IS for aqueous solution or insoluble)
